Drawing on paper PMC10123570 (The Protein Journal, 2023), this text covers IC50 for three molecules.

Where a name gives a salt, the structure may show the parent alone.

In general, IC50 refers to the concentration that gives 50% inhibition. Higher therefore signals weaker potency in that assay.

The target in the assay is T1, High Temperature requirement A (LmHtrA) (Listeria monocytogenes, UniProt Q8YA67).
T1 sequence (Q8YA67 1-500): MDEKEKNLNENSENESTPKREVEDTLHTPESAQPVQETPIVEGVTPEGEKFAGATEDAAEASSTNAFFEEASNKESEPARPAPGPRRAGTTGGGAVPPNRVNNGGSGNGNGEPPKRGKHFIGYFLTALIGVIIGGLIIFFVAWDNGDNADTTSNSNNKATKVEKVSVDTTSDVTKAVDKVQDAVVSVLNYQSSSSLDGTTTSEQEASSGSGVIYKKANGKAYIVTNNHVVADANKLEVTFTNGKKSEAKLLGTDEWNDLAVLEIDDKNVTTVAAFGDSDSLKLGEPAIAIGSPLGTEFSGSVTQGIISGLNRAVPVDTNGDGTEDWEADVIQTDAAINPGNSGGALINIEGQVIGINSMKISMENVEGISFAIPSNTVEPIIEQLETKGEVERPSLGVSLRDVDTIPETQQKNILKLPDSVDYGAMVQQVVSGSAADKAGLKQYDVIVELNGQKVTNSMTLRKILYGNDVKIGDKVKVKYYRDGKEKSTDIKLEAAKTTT
As to the kind of experiment: azo-casein cleavage, spectrophotometric. In kind it is biochemical.
On to `N=C(N)c1ccc2cc(OC(=O)c3ccc(N=C(N)N)cc3)ccc2c1` [NM, Nafamostat mesylate], for which inhibition was half-maximal at 6.6 ± 0.4 µM (IC50).

The molecule `CN(C)C(=O)COC(=O)Cc1ccc(OC(=O)c2ccc(NC(=N)N)cc2)cc1` [CM, Camostat mesylate] returned an IC50 of 152 ± 7.5 µM.

Consider `CCOC(=O)c1ccc(OC(=O)CCCCCNC(=N)N)cc1` [GM, Gabexate mesylate], for which the half-maximal inhibitory concentration (IC50) stood at 80.6 ± 8.5 µM.
